Laboratory results reported in patent publication US9610273B2, “Method for the treatment of hypercholesterolemia” (SAMI LABS LIMITED, priority 2014, dated 2017).
Marks after values point to notes of the source that are not given here.

What was measured:
mice = assay: Acute Oral Toxicity of Calebin A; format: in vivo
Method: No mortality was observed up to 2000 mg/kg p.o. in mice up to two weeks of observation.

[1] = test system: C57 mice on high fat diet (60 kcal % Fat); assay: Effect of Calebin A on serum clinical chemistry parameters in high fat diet obese mice (hypercholesterolemia and hyperlipidemia); format: in vivo; settings: for change in mean Albumin values: female animals, considered incidental; for ALT/SGPT / AST/SGOT / Albumin / Glucose / Total Cholesterol / Total Protein / Triglycerides / HDL / LDL / VLDL: 28 days, serum, n = 5; for ALT/SGPT / AST/SGOT / Albumin / Glucose / Total Cholesterol / Total Protein / Triglycerides: Mean ± SD; for HDL / LDL / VLDL: mean
Source text: d. Diet: The animals were fed ad libitum with AMRUT Laboratory Animal feed manufactured by Pranav Agro Industries Limited, Sangli, Maharastra throughout the acclimatization Open Source Diet D12450B diet (with 10 kcal % Fat) and Open Source Diet D12492 High fat diet (with 60 kcal % Fat) manufactured by Research Diet Inc, USA procured from Indus Marketing, Hyderabad, Andhra Pradesh, INDIA was used for induction of obesity and the main study.
Grouping of animals was done on the last day of acclimatization by body weight randomization and stratification method.
The animals were divided into 5 groups viz., Group 1, 2, 3, 4 and 5 consisting of 10 animals (5 male and 5 female) each.
a. Dose Volume: Dose volume/animal=10 ml/kg body weight for all animals throughout the study period
b. Obesity induction: The G1 Control group animals were fed with normal control diet feed D12450B containing 10 kcal % fat and the G2 to G5 group animals were fed with high fat diet feed D12492 containing 60 kcal % fat during the induction of obesity and during main study. Obesity induction was done considering the scientific rationale that obesity is a serious risk factor for hypercholesterolemia.
c. Main Study: The main study was started after the induction of obesity. The 3 doses of Calebin A was administered to animals from Day 29 daily consecutively for a period of 28 days. The feeding of diets continued in the main study in a similar way as performed in induction of obesity. The G1 Control and G2 High fat diet control group animals were administered with 0.5% CMC (Carboxy Methyl Cellulose) while other group animals received test item from Day 29 to Day 56 of the study period. The dose volume of administration was maintained according to the weekly body weight of individual animals.
d. Duration of the study: The total duration of the study was 61 days (5 days Acclimatization period+28 days Induction of obesity+[…] Main study).
The raw data obtained from the present study were subjected to computer statistical processing. The computer printout of the data (in the form of appendix) was verified with the original raw data. After verification, the data was subjected to One-way ANOVA (Analysis of Variance) with Dunnett's post test for the data on body weights, hematology and clinical chemistry parameters, organ weights using GraphPad Prism version 5.01, GraphPad Software. All analyses and comparisons was evaluated at the 95% level of confidence (P<0.05), indicated by the designated by the superscripts of a where G1 is compared to G3, G4, G5, and G6 and b where G2 is compared to G3, G4, G5, and G6 throughout the report as stated below: *: Statistically significant (P<0.05) wherever applicable.
At the completion of the study period, blood samples were collected from all the animals in tubes containing potassium ethylene […] tetra acetic acid (K2-EDTA) anticoagulant for hematology and without anticoagulant for clinical chemistry. The blood samples collected in tubes without anticoagulant were centrifuged at 3000 rpm for 10 minutes to obtain serum. Blood samples were collected humanely from retro-orbital plexus puncture method under mild ether anesthesia with the help of a fine capillary tube. The following clinical chemistry parameters were analyzed.
The following clinical chemistry parameters (TABLE III) were analyzed using the “Erba Mannheim Chem Touch analyzer” (Transasia Bio-Medicals Ltd, India) from serum samples.

[2] = conclusion, doses of 5, 10 and 20 mg/kg body weight, hypercholesterolemic mammals
[3] = female mice, G3 5 mg/kg + High fat diet (60 kcal % Fat)
[4] = female mice, G4 10 mg/kg + High fat diet (60 kcal % Fat)
[5] = female mice, G5 20 mg/kg + High fat diet (60 kcal % Fat)
[6] = male and female animals, G3, G4, G5 (5, 10, 20 mg/kg + High fat diet) compared to G2 High fat diet Control
[7] = male animals, G3, G4, G5 (5, 10, 20 mg/kg + High fat diet) compared to G2 High fat diet Control
[8] = male mice, G3 5 mg/kg + High fat diet (60 kcal % Fat)
[9] = male mice, G4 10 mg/kg + High fat diet (60 kcal % Fat)
[10] = male mice, G5 20 mg/kg + High fat diet (60 kcal % Fat)

COc1cc(/C=C/C(=O)COC(=O)/C=C/c2ccc(O)c(OC)c2)ccc1O [Calebin A]
Aggression (mice; mouse, in vivo, po): Aggression = Nil
Atexia (mice; mouse, in vivo, po): Atexia = Nil
Blanching (mice; mouse, in vivo, po): Blanching = Nil
Clonic Convulsions (mice; mouse, in vivo, po): Clonic Convulsions = Nil
Corneal (mice; mouse, in vivo, po): Corneal = No effect
Cyanosis (mice; mouse, in vivo, po): Cyanosis = Nil
Diarrhea (mice; mouse, in vivo, po): Diarrhea = Nil
Excitation (mice; mouse, in vivo, po): Excitation = Nil
Fear (mice; mouse, in vivo, po): Fear = Nil
Fecal Output (mice; mouse, in vivo, po): Fecal Output = Normal
General Locomotor Activity (mice; mouse, in vivo, po): Normal
General Movement (mice; mouse, in vivo, po): General Movement = Normal
Hyperaemia (mice; mouse, in vivo, po): Hyperaemia = Nil
Muscular Weakness (mice; mouse, in vivo, po): Muscular Weakness = Nil
Passive (mice; mouse, in vivo, po): Passive = Nil
Pilo Erection (mice; mouse, in vivo, po): Pilo Erection = Nil
Pinnal (mice; mouse, in vivo, po): Pinnal = No effect
Respiration Depth (mice; mouse, in vivo, po): Respiration Depth = Normal
Respiration Rate (mice; mouse, in vivo, po): Respiration Rate = Normal
Salivation (mice; mouse, in vivo, po): Salivation = Nil
Tonic Convulsion (mice; mouse, in vivo, po): Tonic Convulsion = Nil
Tremors (mice; mouse, in vivo, po): Tremors = Nil
Urine Output (mice; mouse, in vivo, po): Urine Output = Normal
mortality (mice; up to 2000 mg/kg p.o., mice, up to two weeks of observation): No mortality
HDL concentrations in the blood [1, 2]: increased
LDL concentrations in the blood [1, 2]: decreased
VLDL concentrations in the blood [1, 2]: decreased
serum triglyceride concentrations ([1]; conclusion, doses of 5, 10 and 20 mg/kg body weight, hyperlipidemic mammals): lowered
change in mean Albumin values ([1]; G5 20 mg/kg + High fat diet compared to G1 Control (10 kcal % Fat)): statistically significant decrease
change in mean Albumin values ([1]; G5 20 mg/kg + High fat diet compared to G2 High fat diet Control): statistically significant decrease
ALT/SGPT [1, 3]: 41.73 ± 5.39 IU/L
AST/SGOT [1, 3]: 80.51 ± 32.35 IU/L
Albumin [1, 3]: 2.82 ± 0.19 g/dL
Glucose [1, 3]: 134.52 ± 26.85 mg/dL
Total Cholesterol [1, 3]: 75.71 ± 13.90 mg/dL
Total Protein [1, 3]: 5.37 ± 0.80 g/dL
Triglycerides [1, 3]: 60.15 ± 10.25 mg/dL
HDL [1, 3]: 81.59 mg/dL
LDL [1, 3]: 78.68 mg/dL
VLDL [1, 3]: 15.14 mg/dL
ALT/SGPT [1, 4]: 63.29 ± 32.86 IU/L
AST/SGOT [1, 4]: 79.89 ± 50.05 IU/L
Albumin [1, 4]: 2.80 ± 0.38 g/dL
Glucose [1, 4]: 112.34 ± 11.35 mg/dL
Total Cholesterol [1, 4]: 47.54 ± 14.21 mg/dL
Total Protein [1, 4]: 4.91 ± 0.20 g/dL
Triglycerides [1, 4]: 59.70 ± 4.33 mg/dL
HDL [1, 4]: 66.85 mg/dL
LDL [1, 4]: 61.20* ^b ± mg/dl
VLDL [1, 4]: 9.51 mg/dL
ALT/SGPT [1, 5]: 55.51 ± 16.94 IU/L
AST/SGOT [1, 5]: 79.91 ± 36.82 IU/L
Glucose [1, 5]: 93.58 ± 11.49 mg/dL
Total Cholesterol [1, 5]: 69.14 ± 21.88 mg/dL
Total Protein [1, 5]: 4.88 ± 0.27 g/dL
Triglycerides [1, 5]: 52.88 ± 4.56 mg/dL
HDL [1, 5]: 66.67 mg/dL
LDL [1, 5]: 52.31** ^b ± mg/dl
VLDL [1, 5]: 13.83 mg/dL
change in mean Low Density Lipoproteins values [1, 6]: decrease
change in mean Very Low Density Lipoproteins values [1, 6]: decrease
change in mean high Density Lipoproteins values ([1]; male and female animals, G4, G5 (10, 20 mg/kg + High fat diet) compared to G2 High fat diet Control): increase
change in mean Total Cholesterol values [1, 7]: decrease
change in mean Triglycerides values [1, 7]: decrease
ALT/SGPT [1, 8]: 64.35 ± 24.58 IU/L
AST/SGOT [1, 8]: 86.99 ± 35.22 IU/L
Albumin [1, 8]: 2.73 ± 0.23 g/dL
Glucose [1, 8]: 159.30 ± 17.02 mg/dL
Total Cholesterol [1, 8]: 63.46 ± 16.64 mg/dL
Total Protein [1, 8]: 4.74 ± 0.23 g/dL
Triglycerides [1, 8]: 76.53 ± 17.11 mg/dL
HDL [1, 8]: 20.46 mg/dL
LDL [1, 8]: 85.55 mg/dL
VLDL [1, 8]: 12.69 mg/dL
ALT/SGPT [1, 9]: 54.81 ± 13.58 IU/L
AST/SGOT [1, 9]: 89.48 ± 35.58 IU/L
Albumin [1, 9]: 2.43 ± 0.42 g/dL
Glucose [1, 9]: 130.49 ± 21.28 mg/dL
Total Protein [1, 9]: 5.08 ± 0.49 g/dL
HDL [1, 9]: 41.80 mg/dL
LDL [1, 9]: 97.45 mg/dL
VLDL [1, 9]: 12.37*^b ± mg/dl
ALT/SGPT [1, 10]: 48.44 ± 9.73 IU/L
AST/SGOT [1, 10]: 90.17 ± 25.87 IU/L
Albumin [1, 10]: 2.66 ± 0.17 g/dL
Glucose [1, 10]: 105.89 ± 37.17 mg/dL
Total Cholesterol [1, 10]: 70.48 ± 14.59 mg/dL
Total Protein [1, 10]: 4.42 ± 0.48 g/dL
HDL [1, 10]: 47.26 mg/dL
LDL [1, 10]: 94.46 mg/dL
VLDL [1, 10]: 14.10 mg/dL
